The results in this text go back to patent publication US20050009772A1, “Methods and compositions for the treatment of glaucoma and other retinal diseases” (The Regents of the University of California, priority 2003, published 2005).

“Also recorded” adds a separate entry of the source.

Test [1] concerns HSC70. Nature of the test: Western blot for HSC70 in enriched RGC fraction after systemic administration of GGA (Experiment 1). Format: in vivo, rat. The conditions noted are these: GGA 200 mg/kg daily i.p. 1, 3, 7 days vs control groups. As to the method: Three experiments are summarized here, and details are provided in the subsequent sections. […] For Western blotting, twelve rats were equally divided into 6 groups. […] Enriched RGC fraction was harvested from 2 retinas of each group and used for Western blot analysis. The same experiment for isolation of RGCs and Western blotting was repeated with the other 2 retinas-from each group.
GGA was a gift from Esai Co, Ltd (Tokyo, Japan). […] Saline-vehicle was prepared and administered in the same fashion in vehicle-treated control groups.
A previously described method was modified to partially purify RGCs from other retinal cells in rat retinas.38 Briefly, two dissected rat retinas from each subgroup were washed in 2.5 ml of calcium- and magnesium-free phosphate buffered saline (PBS) at pH 7.4, and incubated in 1.25 ml of PBS containing 0.5 mg/ml trypsin and 0.01% deoxyribonuclease for 15 minutes at 37° C. […] The cells were then resuspended in 400 μl of MEM buffer, and the protein concentration in the cell suspension was measured with a bicinchoninic acid (BCA) protein assay kit (Pierce, Rockford, Ill.).
The membrane was blocked by incubation in 0.1% Tween-20 in 100 mM Tris-buffered saline containing 10% nonfat dried milk for 1 hour. […] The immunoreactive bands were detected by chemiluminescence with an enhanced chemiluminescence Western blot reagent (Amersham Pharmacia).
A general note: Immunoblotting shows a protein as a band on a membrane.

In test [2] the test system is retinal ganglion cells (RGCs). Briefly: Density of DTMR-labeled RGCs in rat glaucoma model (Experiment 2). Format: in vivo. As to the method: GGA was then given twice a week at the same dose until euthanasia. Sustained elevation of intraocular pressure (IOP) was maintained by performing trabecular laser photocoagulation three weeks after the first photocoagulation. […] IOP and body weight were measured once a week. […] Rats were anesthetized with intramuscular injections of 0.8 ml/kg of the anesthetic cocktail described above. A previously published procedure was modified to produce chronic moderately elevated IOP unilaterally, while the untreated contralateral eye served as the comparative control.40 Animals were injected intracamerally with 10 μl of 35% India ink (Becton Dickinson, Cockeysville, Md.) in 0.01 M PBS after removing a similar volume of aqueous. At the end of the procedure, Tobrex ophthalmic ointment (tobramycin 0.3%; Alcon, Fort Worth, Tex.) was applied topically. Five days after intracameral injection of India ink, a dark band at the limbus was noted due to the aggregation of carbon particles in the trabecular meshwork.38 After anesthesia, approximately 200 laser burns were delivered ab externo to the pigmented trabecular band at laser settings of 200 μm diameter, 200 mW power and 0.2 seconds duration. Three weeks after the first laser treatment, another trabecular laser photocoagulation was performed without further injection of ink. […] A cross section of the optic nerve was made with the needle knife through the opening of the optic nerve sheath, with care not to damage the adjacent blood supply. DTMR crystals were applied to the proximal cut surface of the optic nerve to label RGCs by fast retrograde axonal transport. After euthanasia and enucleation, the retinas were dissected and flattened with four radial cuts (superotemporal, inferotemporal, superonasal, and inferonasal). They were placed with vitreal side up on glass slides, dried in the dark at room temperature overnight and mounted. The retinas were examined with a fluorescence microscope (Axioplan; Carl Zeiss, Oberkochen, Germany) equipped with a filter that permits visualization of rhodamine fluorescence (excitation filter BP 546, barrier filter LP590; Carl Zeiss). The counting of RGCs was conducted by 2 examiners in a masked fashion. […] Each rectangular area measured 0.475 mm×0.362 mm and the total counted area corresponded to approximately 3.1% of each total retinal area. Data are expressed as number of RGCs per mm2.

Where [3] appears, read: contralateral controls (normal IOP).
[4] abbreviates: retinas with IOP elevation, 5 weeks.

Take Geranylgeranylacetone [GGA]: the “immunoreactivity against HSC70 in RGCs (immunoblot)” value in test [1] was “no change in HSC70 expression; also recorded: no detectable difference”. For the same substance, in test [2] (setting [3]), the “density of DTMR-labeled RGCs” value is given as 1077±48 cells/mm2 and the “density of DTMR-labeled RGCs vs vehicle-treated controls (in words)” value is reported as “no statistical significance”. For the same substance, in test [2] (setting [4]), the “density of DTMR-labeled RGCs” value is 1044±36 cells/mm2 and the “more DTMR-labeled cells preserved compared with vehicle” value was determined as 57%. Further, the “effect on density of DTMR-labeled RGCs (in words)” value in test [2] (retinas with IOP elevation, 5 weeks, quercetin = co-administered with GGA) is listed as “higher density; also recorded: partial”.
